Patent US10004701B2, “Methods and compositions for treating infection” (UNIVERSITY OF ROCHESTER, priority 2012, dated 2018)
Where a name gives a salt, the structure may show the parent alone. Read-outs that look alike come from different tables or passages of the source.

What was measured:
Experiment in all cases: AK assay 384-well format, Prestwick library screening
[1] = system: S. aureus strain USA300-0114; type: cell-based, Staphylococcus aureus; settings: 50 μM final drug concentration; for fold induction at 50 µM: Staphylococcus aureus, USA300, 3 h
E. coli = type: cell-based, Escherichia coli; settings: 50 μM final drug concentration; for fold induction at 50 µM: Escherichia coli, 3 h
E. cloacae = type: cell-based, Enterobacter cloacae; settings: 50 μM final drug concentration; for fold induction at 50 µM: Enterobacter cloacae, 3 h
K. pneumoniae = type: cell-based, Klebsiella pneumoniae; settings: 50 μM final drug concentration; for fold induction at 50 µM: Klebsiella pneumoniae, 3 h
P. aeruginosa = type: cell-based, Pseudomonas aeruginosa; settings: 50 μM final drug concentration; for fold induction at 50 µM: Pseudomonas aeruginosa, 3 h
E. faecium = type: cell-based, Enterococcus faecium; settings: 50 μM final drug concentration; for fold induction at 50 µM: Enterococcus faecium, 3 h
[2] = system: A. baumannii strain 98-37-09; type: cell-based, Acinetobacter baumannii; settings: 50 μM final drug concentration; for fold induction at 50 µM: Acinetobacter baumannii, 983709, 3 h
[3] = planktonic, cutoff for positive 3-fold increase, read-out: AK-based Prestwick Library Screening Results, S. aureus (fold increase in extracellular AK activity)
[4] = planktonic, cutoff for positive 3-fold increase, read-out: AK-based Prestwick Library Screening Results, E. coli (fold increase in extracellular AK activity)
[5] = planktonic, cutoff for positive 3-fold increase, read-out: AK-based Prestwick Library Screening Results, E. cloacae (fold increase in extracellular AK activity)
[6] = planktonic, cutoff for positive 3-fold increase, read-out: AK-based Prestwick Library Screening Results, K. pneumoniae (fold increase in extracellular AK activity)
[7] = planktonic, cutoff for positive 3-fold increase, read-out: AK-based Prestwick Library Screening Results, P. aeruginosa (fold increase in extracellular AK activity)
[8] = planktonic, cutoff for positive 3-fold increase, read-out: AK-based Prestwick Library Screening Results, E. faecium (fold increase in extracellular AK activity)
[9] = planktonic, cutoff for positive 3-fold increase, read-out: AK-based Prestwick Library Screening Results, A. baumannii (fold increase in extracellular AK activity)
[10] = planktonic S. aureus, positive cutoff 3-fold increase, read-out: AK-based Prestwick library screening result, S. aureus (fold increase in extracellular AK activity)
[11] = planktonic E. coli, positive cutoff 3-fold increase, read-out: AK-based Prestwick library screening result, E. coli (fold increase in extracellular AK activity)
[12] = planktonic E. cloacae, positive cutoff 3-fold increase, read-out: AK-based Prestwick library screening result, E. cloacae (fold increase in extracellular AK activity)
[13] = planktonic K. pneumoniae, positive cutoff 3-fold increase, read-out: AK-based Prestwick library screening result, K. pneumoniae (fold increase in extracellular AK activity)
[14] = planktonic P. aeruginosa, positive cutoff 3-fold increase, read-out: AK-based Prestwick library screening result, P. aeruginosa (fold increase in extracellular AK activity)
[15] = planktonic E. faecium, positive cutoff 3-fold increase, read-out: AK-based Prestwick library screening result, E. faecium (fold increase in extracellular AK activity)
[16] = planktonic A. baumannii, positive cutoff 3-fold increase, read-out: AK-based Prestwick library screening result, A. baumannii (fold increase in extracellular AK activity)
[17] = 384-well format, cutoff for positive-scoring molecules 3-fold increase

In the case of `c1ccc2[nH]c(-c3cscn3)nc2c1` [Tiabendazole], the fold induction at 50 µM [1, 3] is reported as 0.6, the fold induction at 50 µM (E. coli; [4]) is reported as 0.6 and the fold induction at 50 µM (E. cloacae; [5]) is reported as 1.3. It also gave a fold induction at 50 µM (K. pneumoniae; [6]) of 0.4, a fold induction at 50 µM (P. aeruginosa; [7]) of 0.6 and a fold induction at 50 µM (E. faecium; [8]) of 0.5. For the same compound, the fold induction at 50 µM [2, 9] was 0.5.
`COCCCC/C(=N\OCCN)c1ccc(C(F)(F)F)cc1` [Fluvoxamine maleate] was tested, and the fold induction at 50 µM [1, 10] was 0.7, the fold induction at 50 µM (E. coli; [11]) was 0.9 and the fold induction at 50 µM (E. cloacae; [12]) was 1.1. It also gave a fold induction at 50 µM (K. pneumoniae; [13]) of 0.7, a fold induction at 50 µM (P. aeruginosa; [14]) of 0.8 and a fold induction at 50 µM (E. faecium; [15]) of 0.8. The fold induction at 50 µM [2, 16] was 0.9.
`C[C@]12CCC(=O)C=C1CC[C@@H]1[C@@H]2[C@@H](O)C[C@@]2(C)[C@H]1CC[C@]2(O)C(=O)CO` [Hydrocortisone base] was tested, and the “AK-based Prestwick Library Screening Results, S. aureus (increase in extracellular AK activity)” value ([1]; planktonic S. aureus, cutoff for positive-scoring molecules 3-fold increase) was 1.3, the “AK-based Prestwick Library Screening Results, E. coli (increase in extracellular AK activity)” value (E. coli; planktonic E. coli, cutoff for positive-scoring molecules 3-fold increase) was 1.1 and the “AK-based Prestwick Library Screening Results, E. cloacae (increase in extracellular AK activity)” value (E. cloacae; planktonic E. cloacae, cutoff for positive-scoring molecules 3-fold increase) was 1.4. For the same compound, the “AK-based Prestwick Library Screening Results, K. pneumoniae (increase in extracellular AK activity)” value (K. pneumoniae; planktonic K. pneumoniae, cutoff for positive-scoring molecules 3-fold increase) was 0.9, the “AK-based Prestwick Library Screening Results, P. aeruginosa (increase in extracellular AK activity)” value (P. aeruginosa; planktonic P. aeruginosa, cutoff for positive-scoring molecules 3-fold increase) was 1.1 and the “AK-based Prestwick Library Screening Results, E. faecium (increase in extracellular AK activity)” value (E. faecium; planktonic E. faecium, cutoff for positive-scoring molecules 3-fold increase) was 1.0. The “AK-based Prestwick Library Screening Results, A. baumannii (increase in extracellular AK activity)” value ([2]; planktonic A. baumannii, cutoff for positive-scoring molecules 3-fold increase) was 1.3.
With `CC(=O)Oc1cc(C(C)C)c(OCCN(C)C)cc1C.Cl` [Moxisylyte hydrochoride] the “AK-based Prestwick Library Screening Results, S. aureus (increase in extracellular AK activity)” value [1, 17] was 1.1, the “AK-based Prestwick Library Screening Results, E. coli (increase in extracellular AK activity)” value (E. coli; [17]) was 1.2 and the “AK-based Prestwick Library Screening Results, E. cloacae (increase in extracellular AK activity)” value (E. cloacae; [17]) was 1.6. For the same compound, the “AK-based Prestwick Library Screening Results, K. pneumoniae (increase in extracellular AK activity)” value (K. pneumoniae; [17]) was 1.0, the “AK-based Prestwick Library Screening Results, P. aeruginosa (increase in extracellular AK activity)” value (P. aeruginosa; [17]) was 1.1 and the “AK-based Prestwick Library Screening Results, E. faecium (increase in extracellular AK activity)” value (E. faecium; [17]) was 0.9. The “AK-based Prestwick Library Screening Results, A. baumannii (increase in extracellular AK activity)” value [2, 17] was 1.1.
In the case of `CC1=NS(=O)(=O)c2cc(Cl)ccc2N1` [Diazoxide], the fold induction at 50 µM ([1]; 384-well format, cutoff for positive-scoring molecules 3-fold increase, read-out: AK-based Prestwick Library Screening Results, S. aureus (increase in extracellular AK activity)) is reported as 0.5, the fold induction at 50 µM (E. coli; 384-well format, cutoff for positive-scoring molecules 3-fold increase, read-out: AK-based Prestwick Library Screening Results, E. coli (increase in extracellular AK activity)) is reported as 0.5 and the fold induction at 50 µM (E. cloacae; 384-well format, cutoff for positive-scoring molecules 3-fold increase, read-out: AK-based Prestwick Library Screening Results, E. cloacae (increase in extracellular AK activity)) is reported as 0.4. The fold induction at 50 µM (K. pneumoniae; 384-well format, cutoff for positive-scoring molecules 3-fold increase, read-out: AK-based Prestwick Library Screening Results, K. pneumoniae (increase in extracellular AK activity)) was 0.4, the fold induction at 50 µM (P. aeruginosa; 384-well format, cutoff for positive-scoring molecules 3-fold increase, read-out: AK-based Prestwick Library Screening Results, P. aeruginosa (increase in extracellular AK activity)) was 0.4 and the fold induction at 50 µM (E. faecium; 384-well format, cutoff for positive-scoring molecules 3-fold increase, read-out: AK-based Prestwick Library Screening Results, E. faecium (increase in extracellular AK activity)) was 0.9. The fold induction at 50 µM ([2]; 384-well format, cutoff for positive-scoring molecules 3-fold increase, read-out: AK-based Prestwick Library Screening Results, A. baumannii (increase in extracellular AK activity)) was 0.4.
`CC1(C)S[C@@H]2[C@H](NC(=O)[C@H](C(=O)O)c3ccsc3)C(=O)N2[C@H]1C(=O)O` [Ticarcillin sodium] showed a fold induction at 50 µM [1, 10] of 0.7, a fold induction at 50 µM (E. coli; [11]) of 12.8 and a fold induction at 50 µM (E. cloacae; [12]) of 1.4. It also gave a fold induction at 50 µM (K. pneumoniae; [13]) of 0.7, a fold induction at 50 µM (P. aeruginosa; [14]) of 0.8 and a fold induction at 50 µM (E. faecium; [15]) of 1.2. For the same compound, the fold induction at 50 µM [2, 16] was 2.6.
`CC(=O)N(O)CCCCCNC(=O)CCC(=O)N(O)CCCCCNC(=O)CCC(=O)N(O)CCCCCN` [Deferoxamine mesylate] gave a fold induction at 50 µM [1, 3] of 0.4, a fold induction at 50 µM (E. coli; [4]) of 0.4 and a fold induction at 50 µM (E. cloacae; [5]) of 0.4. For the same compound, the fold induction at 50 µM (K. pneumoniae; [6]) was 0.5, the fold induction at 50 µM (P. aeruginosa; [7]) was 0.4 and the fold induction at 50 µM (E. faecium; [8]) was 0.9. It also gave a fold induction at 50 µM [2, 9] of 0.4.
`CCOC(=O)n1ccn(C)c1=S` [Carbimazole] gave a fold induction at 50 µM ([1]; planktonic S. aureus, cutoff for positive-scoring molecules 3-fold increase, read-out: AK-based Prestwick Library Screening Results, S. aureus (increase in extracellular AK activity)) of 0.6, a fold induction at 50 µM (E. coli; planktonic E. coli, cutoff for positive-scoring molecules 3-fold increase, read-out: AK-based Prestwick Library Screening Results, E. coli (increase in extracellular AK activity)) of 0.8 and a fold induction at 50 µM (E. cloacae; planktonic E. cloacae, cutoff for positive-scoring molecules 3-fold increase, read-out: AK-based Prestwick Library Screening Results, E. cloacae (increase in extracellular AK activity)) of 1.2. For the same compound, the fold induction at 50 µM (K. pneumoniae; planktonic K. pneumoniae, cutoff for positive-scoring molecules 3-fold increase, read-out: AK-based Prestwick Library Screening Results, K. pneumoniae (increase in extracellular AK activity)) was 0.7, the fold induction at 50 µM (P. aeruginosa; planktonic P. aeruginosa, cutoff for positive-scoring molecules 3-fold increase, read-out: AK-based Prestwick Library Screening Results, P. aeruginosa (increase in extracellular AK activity)) was 0.7 and the fold induction at 50 µM (E. faecium; planktonic E. faecium, cutoff for positive-scoring molecules 3-fold increase, read-out: AK-based Prestwick Library Screening Results, E. faecium (increase in extracellular AK activity)) was 0.9. It also gave a fold induction at 50 µM ([2]; planktonic A. baumannii, cutoff for positive-scoring molecules 3-fold increase, read-out: AK-based Prestwick Library Screening Results, A. baumannii (increase in extracellular AK activity)) of 0.8.
With `CC[N+](CC)(CC(=O)Nc1c(C)cccc1C)Cc1ccccc1` [Denatonium benzoate] the fold induction at 50 µM ([1]; cutoff for positive-scoring molecules 3-fold increase, read-out: AK-based Prestwick Library Screening Results, S. aureus (fold increase in extracellular AK activity)) was 0.4, the fold induction at 50 µM (E. coli; cutoff for positive-scoring molecules 3-fold increase, read-out: AK-based Prestwick Library Screening Results, E. coli (fold increase in extracellular AK activity)) was 0.5 and the fold induction at 50 µM (E. cloacae; cutoff for positive-scoring molecules 3-fold increase, read-out: AK-based Prestwick Library Screening Results, E. cloacae (fold increase in extracellular AK activity)) was 0.4. For the same compound, the fold induction at 50 µM (K. pneumoniae; cutoff for positive-scoring molecules 3-fold increase, read-out: AK-based Prestwick Library Screening Results, K. pneumoniae (fold increase in extracellular AK activity)) was 0.4, the fold induction at 50 µM (P. aeruginosa; cutoff for positive-scoring molecules 3-fold increase, read-out: AK-based Prestwick Library Screening Results, P. aeruginosa (fold increase in extracellular AK activity)) was 0.4 and the fold induction at 50 µM (E. faecium; cutoff for positive-scoring molecules 3-fold increase, read-out: AK-based Prestwick Library Screening Results, E. faecium (fold increase in extracellular AK activity)) was 0.9. The fold induction at 50 µM ([2]; cutoff for positive-scoring molecules 3-fold increase, read-out: AK-based Prestwick Library Screening Results, A. baumannii (fold increase in extracellular AK activity)) was 0.3.
In the case of `CC1CS(=O)(=O)CCN1/N=C/c1ccc([N+](=O)[O-])o1` (stereo not shown) [Nifurtimox], the fold induction at 50 µM [1, 10] is reported as 0.8, the fold induction at 50 µM (E. coli; [11]) is reported as 1.1 and the fold induction at 50 µM (E. cloacae; [12]) is reported as 1.3. It also gave a fold induction at 50 µM (K. pneumoniae; [13]) of 1.2, a fold induction at 50 µM (P. aeruginosa; [14]) of 1.1 and a fold induction at 50 µM (E. faecium; [15]) of 1. The fold induction at 50 µM [2, 16] was 1.5.
